Molecular target: T1, PPARγ (Homo sapiens, UniProt P37231)
T1 sequence (P37231 1-505): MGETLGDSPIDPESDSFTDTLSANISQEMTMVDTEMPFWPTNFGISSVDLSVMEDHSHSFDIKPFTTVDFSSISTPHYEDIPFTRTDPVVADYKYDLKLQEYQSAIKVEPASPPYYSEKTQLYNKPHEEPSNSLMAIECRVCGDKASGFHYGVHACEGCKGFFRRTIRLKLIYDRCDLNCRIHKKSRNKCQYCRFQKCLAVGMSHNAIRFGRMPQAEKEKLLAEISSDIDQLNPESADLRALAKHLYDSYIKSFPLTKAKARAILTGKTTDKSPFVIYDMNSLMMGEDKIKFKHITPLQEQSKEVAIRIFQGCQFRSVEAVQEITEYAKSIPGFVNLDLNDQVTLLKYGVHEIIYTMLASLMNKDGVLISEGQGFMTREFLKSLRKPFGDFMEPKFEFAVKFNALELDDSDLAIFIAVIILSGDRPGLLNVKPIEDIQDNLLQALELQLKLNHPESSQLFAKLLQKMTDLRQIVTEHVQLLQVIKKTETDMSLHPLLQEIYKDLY
T1 sequence (P19793 1-462 partner): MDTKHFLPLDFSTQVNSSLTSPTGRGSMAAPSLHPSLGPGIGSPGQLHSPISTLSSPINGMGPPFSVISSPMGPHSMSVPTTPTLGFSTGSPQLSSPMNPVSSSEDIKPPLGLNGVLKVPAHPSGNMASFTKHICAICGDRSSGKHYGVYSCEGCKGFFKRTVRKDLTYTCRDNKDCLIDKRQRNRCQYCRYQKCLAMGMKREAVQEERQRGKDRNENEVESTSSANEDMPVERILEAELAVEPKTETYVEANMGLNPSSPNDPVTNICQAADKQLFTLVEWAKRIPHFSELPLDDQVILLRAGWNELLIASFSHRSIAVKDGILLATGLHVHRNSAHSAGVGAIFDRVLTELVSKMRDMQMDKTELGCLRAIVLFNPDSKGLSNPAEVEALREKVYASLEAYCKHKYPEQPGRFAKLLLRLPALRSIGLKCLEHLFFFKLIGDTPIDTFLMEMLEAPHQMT
Assay: PPARγ reporter functional assay (CTF)
Format: cell-based
Conditions: examined up to 10 μM; CV1 cells; luciferase
Text: Gal4 PPARα, Gal4 PPARδ, and PPARγ reporter functional assays are also used to monitor the selectivity of exemplified compounds. CV1 cells, which are derived from the renal tissue of an African green monkey, are transfected with various receptor and reporter plasmids using Fugene. For the Gal4 PPARα and PPARδ assays, a reporter plasmid containing five tandem copies of the yeast transcription protein Gal4 response element, cloned upstream of a firefly luciferase gene driven by the major late promoter of adenovirus, is transfected together with a Simian Virus 40 (SV40) driven plasmid constitutively expressing a hybrid protein containing the Gal4 DNA binding domain (DBD), and either the PPARα or PPARδ ligand binding. For the PPARγ assay, plasmids encoding PPARγ and RXRα, both driven by a cytomegalovirus (CMV) promoter are transfected together with a plasmid containing luciferase reporter cDNA driven by the TK promoter and a receptor response element (2×PPRE). Cells are transfected in T225 cm^2 cell culture flasks in DMEM media with 5% charcoal-stripped FBS. […] After 24 hours incubation with compounds, cells are lysed and luciferase activity is determined as a measure of receptor activation by luminescence. […] The maximum percent stimulation is determined versus maximum stimulation obtained with 10 μM of an appropriate PPAR agonist reference compound. […]

- functional activation: No functional activation
Structure (SMILES): CC#C[C@@H](CC(=O)O)c1ccc(OCc2ccc(CN3CCC4(C=Cc5ccccc54)CC3)cc2)cc1 [Example 1, (3S)-3-(4-{[4-(1′H-Spiro[indene-1,4′-piperidin]-1′-ylmethyl)benzyl]oxy}phenyl)hex-4-ynoic acid]
